Reference: US4792568A, “Aryl pyrroles as useful antiallergy compounds” (Rorer Pharmaceutical Corporation, priority 1986, dated 1988)

Assays:
5-lipoxygenase = biological target: T1, 5-lipoxygenase (Rattus norvegicus, UniProt P12527); test: Inhibition of 5-lipoxygenase (5-HETE formation from [14C]-arachidonic acid in rat neutrophils, Calcium Ionophore A23187); format: cell-based; details: 3 minutes at 30° C.; for IC50: net 5-HETE, read-out: concentration required for inhibition of the 5-lipoxygenase (5-LOX/I50)
T1 construct: A suspension of rat neutrophils in buffer; endogenous in cells; host or cells: rat neutrophils
T1 sequence (P12527 1-673): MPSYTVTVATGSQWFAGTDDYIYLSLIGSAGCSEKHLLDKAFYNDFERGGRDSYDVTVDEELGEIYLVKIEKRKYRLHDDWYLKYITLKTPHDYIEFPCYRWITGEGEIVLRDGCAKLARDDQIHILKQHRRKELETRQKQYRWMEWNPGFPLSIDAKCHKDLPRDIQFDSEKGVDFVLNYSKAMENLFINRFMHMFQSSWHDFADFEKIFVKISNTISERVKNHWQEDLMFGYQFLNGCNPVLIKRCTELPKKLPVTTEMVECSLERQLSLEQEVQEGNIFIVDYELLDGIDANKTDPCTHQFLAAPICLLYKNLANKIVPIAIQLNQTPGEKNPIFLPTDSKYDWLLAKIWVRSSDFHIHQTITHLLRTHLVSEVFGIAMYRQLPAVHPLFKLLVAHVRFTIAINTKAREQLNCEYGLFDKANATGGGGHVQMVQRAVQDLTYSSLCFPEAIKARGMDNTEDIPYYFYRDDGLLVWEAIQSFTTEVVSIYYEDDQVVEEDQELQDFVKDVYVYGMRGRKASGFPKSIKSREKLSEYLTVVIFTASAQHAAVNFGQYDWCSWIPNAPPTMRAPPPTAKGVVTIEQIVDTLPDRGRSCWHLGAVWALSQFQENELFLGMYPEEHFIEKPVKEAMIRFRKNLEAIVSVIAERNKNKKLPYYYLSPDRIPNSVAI
Protocol: The following protocol describes an assay to detect inhibitors of the lipoxygenase. Such inhibitors are believed to be capable of modulating the biosynthesis of the leukotrienes, a property believed to be useful in treating asthma and inflammatory disease states.
A suspension of rat neutrophils in buffer is incubated for 3 minutes at 30° C. with [^14 C]-arachidonic acid (AA) and Calcium Ionophore A23187. Citric acid (2M) is used to quench the reaction. Following the addition of a trace amount of (^3 H)-5-HETE together with an excess of unlabeled 5-HETE to each tube, the mixture is extracted with chloroform/methanol. The organic layer is washed wth dilute acid and an aliquot is transferred to glass tubes and dried. The residue is dissolved in a small volume of chloroform and an aliquot is spotted on silica gel TLC sheets, which are developed with an ethyl acetate/isooctane/water/acetic acid solvent system. The 5-HETE spots are visualized with iodine, cut out and placed in scintillation vials for counting. After adjusting for the extraction efficiency, the amount (pmole) of [^14 C]-5-HETE in each of the tubes is quantitated. The net pmoles of 5-HETE are obtained by subtracting the pmoles of 5-HETE in the tubes containing buffer alone (blank) from the pmoles of 5-HETE in the tubes containing […]. The ability of the test compounds to modulate the activity of this enzyme is determined by a decrease or increase in the net amount of 5-HETE produced.

[1] = tested on: leukotriene C4-induced contraction of guinea pig peripheral strips; test: SRS-A antagonists (SALTI): inhibition of leukotriene C4-induced contraction of guinea pig peripheral lung strips; format: cell-based; details: 0.2 nM leukotriene C4, 37° C.; for IC50: Cavia porcellus, read-out: concentration required for 50% inhibition of leukotriene C4-induced contraction (I50)
Protocol: Peripheral strips of guinea pig lungs are prepared and hung in tissue baths (Metro #ME-5505, 10 ml) according to the published procedure (Pro. Nat'l. Acad. Sci., U.S.A. Volume 77, pp. 4354-4358, 1980). The strips are thoroughly rinsed in Assay Buffer and then connected with surgical silk thread to the support rods from the tissue baths. The rods are adjusted in the baths and the strips connected to the pressure transducers (Grass FT 103 or Gould UC-3--. The tissue baths are aerated with 95% oxygen-5% carbon dioxide and maintained at 37° C. The Assay Buffer has been made as follows:
For each liter of buffer the following are added to approximately 800 ml of water distilled in glass: 6.87 g NaCl, 0.4 g KCl, […] NaHCO3, 0.14 g NaH2 PO4 H2 O, 0.21 g MgSO4 7H2 O, and 2.0 g D-glucose. Tehn a solution of 0.368 g CaCl2 2H2 O in 100 ml glass-distilled water is slowly added to the buffer. Sufficient water is added to adjust the volume to one liter, and the solution is aerated with 95% oxygen--5% carbon dioxide. Usually 10 liters of buffer are used for an experiment with 4 tissues.
After the tissues have been repeatedly washed and allowed to equilibrate in the tissue bath, they are challenged with 1 μM histamine. After maximum contractions have been obtained, the tissues are washed, and allowed to relax back to baseline tension. This histamine challenge procedure is repeated at least 1 to 2 more times ot obtain a repeatable control response. The average response to 1 μM histamine for each tissue is used to normalize all other challenges.
Responses of each tissue to a predetermined concentration of leukotriene are then obtained. Usually test compounds are examined initially at 30 μM on resting tension of the tissues without any added agonist or antagonist to determine if the compound has any possible intrinsic activity. The tissues are washed, and the test compound is added again. Leukotriene is added after the desired pre-incubation time. The intrinsic activity of the compounds and their effect on leukotriene-induced contractions are then recorded.
The concentration required for 50% inhibition of 0.2 nM leukotriene C4 -induced contraction of guinea pig peripheral strips for the compounds of the Examples 1 to 6 is as follows: […]

| Compound | relative activity at 10 μM (5-lipoxygenase inhibition) (5-lipoxygenase) | IC50 [1] | IC50 (5-lipoxygenase) | concentration required for 50% inhibition of leukotriene C4-induced contraction (I50) [1] |
| --- | --- | --- | --- | --- |
| O=Cc1cccn1-c1cccc(Oc2ccccc2)c1 [Example 1, 1-(3-Phenoxyphenyl)-pyrrole-2-aldehyde] | medium | 20 µM | – | – |
| O=Cc1ccn(-c2cccc(Oc3ccccc3)c2)c1 [Example 2, 1-(3-Phenoxyphenyl)-pyrrole-3-aldehyde] | medium | 18 µM | – | – |
| CCCCCC(O)c1cccn1-c1cccc(Oc2ccccc2)c1 (stereo not shown) [Example 3, 2-(1-Hydroxyhexyl)-1-(3-phenoxyphenyl)pyrrole] | – | – | 7 µM | Inactive |
| CCCCCC(O)c1ccn(-c2cccc(Oc3ccccc3)c2)c1 (stereo not shown) [Example 4, 3-(1-Hydroxyhexyl)-1-(3-phenoxyphenyl)pyrrole] | – | – | 4 µM | – |
| CCCCCC(O)c1cccn1-c1ccccc1 (stereo not shown) [Example 5, 2-(1-Hydroxyhexyl)-1-phenylpyrrole] | – | – | 20 µM | Inactive |
| CCCCCC(O)c1ccn(-c2ccccc2)c1 (stereo not shown) [Example 6, 3-(1-Hydroxyhexyl)-1-phenylpyrrole] | medium | – | – | – |
